Where two headings read alike, the source gives them in different places.
What was measured:
GSPT1 = GSPT1 (Homo sapiens, UniProt P15170+Q96SW2); assay: Immunofluorescence assay for GSPT1 degradation in CAL-Si cells; assay type: cell-based; design: CAL-Si cells were purchased from DSMZ (cat. Number ACC302); host or cells: CAL-Si (CAL-51) cells; conditions: 6 hours treatment
Procedure: The representative compounds were tested in an immunofluorescence assay for their activity to bind to degrade GSPT1. CAL-Si cells were purchased from DSMZ (cat. Number ACC302), sub-cultured in 90% Dulbecco's MEM (4.5 g/L glucose, Gibco 11965)+10% […] inactivated FBS (BioConcept, 2-01F136I) and incubated at 37° C., 5% CO2. For the assay, imaging microtiterplate Cell Carrier 96 Ultra (Perkin Elmer 6055302) were pre-coated with Fibronectin (Sigma F085, 30 μl at 0.2 μg/ml) in PBS (100 μl, Gibco 14190) for 45 min at room temperature, rinsed with PBS and CAL-Si cells (30K cells/well) were plated and let to adhere overnight. Cells were treated with compounds typically using a serial dilution ranging from 30 μM to 0.1 nM for 6 hours. Compounds were stored at 10 mM DMSO stocks. Vehicle (DMSO), positive (CC-885, 10 μM) and rescue controls (positive control plus 0.2 μM bortezomib) were also included at this stage. Cells were subsequently rinsed with PBS and fixed in 10% Formalin solution (50 μl, Sigma HT5011)) for 20 mins at room temperature. Following three consecutive PBS washes (100 μl), cells were permeabilized in 0.1% Triton X-100 in PBS (Sigma 93443, 50 μl) for 15 mins at room temperature. Following three further PBS washes, […] blocking buffer (1% BSA, Sigma A4503, in PBS) was added for 45 min for signal-to-noise reduction.
Primary antibody (human GSPT1, Sigma HPA052488) was diluted in blocking buffer (dil.1/300, 35 μl/well) and incubated with the cells overnight at 4° C. After three PBS washes, Alexa-fluor 488 coupled secondary antibodies (Invitrogen, A32731, dil.1/1000), Alexa-fluor 647-Phalloidin (Invitrogen, A22287, dil.1/200) and DAPI (Thermo, #62248, dil.1/1000) were diluted in blocking buffer and incubated with the samples for 2 hours at room temperature. After three final PBS washes, samples were conserved in […] PBS in the dark, until measurement. Image acquisition was performed on the Operetta High-Content Imager (Perkin-Elmer). Fluorescence intensity of Alexa-Fluor 488 (GSPT1), Alexa-Fluor 647 (Actin) and DAPI (Nucleus) were measured. For the determination of GSPT1 DC50 values, a custom algorithm implemented in the PerkinElmer image analysis software Harmony-Acapella® was developed. After user-defined setting of adjustment parameters, the analysis was run identically without human intervention for all image fields. DAPI staining of the nuclei was used to determine the location of cells using standard nuclei detection modules. Segmentation artifacts were removed by threshold-based filters for area, roundness and intensity. The outline of the cells was determined analogously from the sum of the normalized, smoothed DAPI and Actin channel, starting from each nucleus.
The Alexa-Fluor 488 (GSPT1) signal intensity in each cell was finally measured, in order to obtain a Mean intensity per cell. GSPT1 degradation (DC50) was calculated after normalization to controls and data import in CDD vault Database, using non-linear regression.

[1] = molecular target: T1, Full length wild-type cereblon CRBN (Homo sapiens, UniProt Q96SW2); assay: Fluorescence polarization (FP) assay indicating cereblon binding
T1 construct: Full length wild-type cereblon CRBN (80.0 nM, 10 μL) was incubated in assay buffer
Excerpt: Protocol for Fluorescent Polarization Assay
Compound activity was monitored in a fluorescence polarization (FP) homogeneous assay using 1-[5-({2-[2-(2-{[2-(2,6-dioxopiperidin-3-yl)-1,3-dioxo-2,3-dihydro-1H-isoindol-4-yl]oxy}acetamido)ethoxy]ethyl}carbamoyl)pentyl]-3,3-dimethyl-2-[(1E,3E)-5-[(2E)-1,3,3-trimethyl-5-sulfo-2,3-dihydro-1H-indol-2-ylidene]penta-1,3-dien-1-yl]-3H-indol-1-ium-5-sulfonate as a fluorescent probe. Unless otherwise stated, all reagents were purchased from Sigma Aldrich. Enzymatic reactions were conducted in Perkin-Elmer Black 384 well ProxiPlate Plus (catalogue no. 6008269) in 10 μL total volume. Full length wild-type cereblon CRBN (80.0 nM, 10 μL) was incubated in assay buffer containing 20 mM HEPES (pH 8.0), […], 0.5 mM TCEP and 0.05% Tween 20 in the presence or absence of compound (300 nL). Inhibitors were stored as 10 mM DMSO stocks in an inert environment (low humidity, dark, low oxygen, room temperature) using the Storage Pod System. Compounds and DMSO were dispensed using the Echo E5XX (Labcyte Inc. USA) to give concentrations from 300 to 0.937 or 3000 to 9.3 nM in a 12 data point curve. […] Following incubation at room temperature for 30 min, the assay was initiated by dispensing the probe to a final concentration of 5 nM (2.5 nL of a 20 μM stock) using the Echo E5XX. FP was measured after a period of 12 hours using a Pherastar plate reader (BMG Labtech, Germany) exciting at 590 nm and measuring the amount of parallel and perpendicular light at 675 nm. The FP signal was subsequently normalized to the no-compound control (i.e., DMSO). Analysis and IC50 values were derived using Dotmatics (Dotmatics UK) software.

[2] = read-out: Code: activity for GSPT1 degradation (DC50)
[3] = cereblon binding, CRBN 80.0 nM, probe 5 nM, FP read after 12 hours, read-out: rFP IC50
[4] = fluorescence polarization assay, read-out: IC50 value (cereblon binding)
[5] = GSPT1 degradation, read-out: DC50

T1 sequence (Q96SW2 whole entry): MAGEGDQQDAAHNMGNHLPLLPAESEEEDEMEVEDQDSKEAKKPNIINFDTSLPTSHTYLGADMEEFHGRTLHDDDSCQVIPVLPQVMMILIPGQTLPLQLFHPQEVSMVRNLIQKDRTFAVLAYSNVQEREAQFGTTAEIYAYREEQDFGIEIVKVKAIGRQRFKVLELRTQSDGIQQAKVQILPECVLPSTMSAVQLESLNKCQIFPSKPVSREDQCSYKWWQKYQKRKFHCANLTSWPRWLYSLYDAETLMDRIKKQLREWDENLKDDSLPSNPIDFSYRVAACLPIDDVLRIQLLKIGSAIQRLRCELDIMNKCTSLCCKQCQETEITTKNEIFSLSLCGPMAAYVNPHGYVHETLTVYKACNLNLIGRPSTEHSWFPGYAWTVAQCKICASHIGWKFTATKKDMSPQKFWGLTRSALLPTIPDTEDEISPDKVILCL
GSPT1, sequence (P15170 whole entry): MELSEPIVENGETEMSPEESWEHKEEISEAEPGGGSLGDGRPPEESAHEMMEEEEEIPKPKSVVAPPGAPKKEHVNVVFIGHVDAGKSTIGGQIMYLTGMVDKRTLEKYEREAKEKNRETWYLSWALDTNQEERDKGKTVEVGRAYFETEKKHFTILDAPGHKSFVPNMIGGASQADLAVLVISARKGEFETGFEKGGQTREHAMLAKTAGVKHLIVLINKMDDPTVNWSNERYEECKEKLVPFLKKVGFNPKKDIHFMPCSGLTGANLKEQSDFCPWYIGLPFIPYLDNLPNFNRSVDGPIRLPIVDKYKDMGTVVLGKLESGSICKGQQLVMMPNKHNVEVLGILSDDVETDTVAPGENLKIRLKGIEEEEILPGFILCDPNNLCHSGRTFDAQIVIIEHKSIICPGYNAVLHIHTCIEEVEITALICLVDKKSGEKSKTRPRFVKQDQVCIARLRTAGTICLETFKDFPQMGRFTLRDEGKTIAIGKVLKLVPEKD
GSPT1, sequence (Q96SW2 whole entry): as the sequence (Q96SW2 whole entry) above
GSPT1, sequence (Q16531 whole entry partner): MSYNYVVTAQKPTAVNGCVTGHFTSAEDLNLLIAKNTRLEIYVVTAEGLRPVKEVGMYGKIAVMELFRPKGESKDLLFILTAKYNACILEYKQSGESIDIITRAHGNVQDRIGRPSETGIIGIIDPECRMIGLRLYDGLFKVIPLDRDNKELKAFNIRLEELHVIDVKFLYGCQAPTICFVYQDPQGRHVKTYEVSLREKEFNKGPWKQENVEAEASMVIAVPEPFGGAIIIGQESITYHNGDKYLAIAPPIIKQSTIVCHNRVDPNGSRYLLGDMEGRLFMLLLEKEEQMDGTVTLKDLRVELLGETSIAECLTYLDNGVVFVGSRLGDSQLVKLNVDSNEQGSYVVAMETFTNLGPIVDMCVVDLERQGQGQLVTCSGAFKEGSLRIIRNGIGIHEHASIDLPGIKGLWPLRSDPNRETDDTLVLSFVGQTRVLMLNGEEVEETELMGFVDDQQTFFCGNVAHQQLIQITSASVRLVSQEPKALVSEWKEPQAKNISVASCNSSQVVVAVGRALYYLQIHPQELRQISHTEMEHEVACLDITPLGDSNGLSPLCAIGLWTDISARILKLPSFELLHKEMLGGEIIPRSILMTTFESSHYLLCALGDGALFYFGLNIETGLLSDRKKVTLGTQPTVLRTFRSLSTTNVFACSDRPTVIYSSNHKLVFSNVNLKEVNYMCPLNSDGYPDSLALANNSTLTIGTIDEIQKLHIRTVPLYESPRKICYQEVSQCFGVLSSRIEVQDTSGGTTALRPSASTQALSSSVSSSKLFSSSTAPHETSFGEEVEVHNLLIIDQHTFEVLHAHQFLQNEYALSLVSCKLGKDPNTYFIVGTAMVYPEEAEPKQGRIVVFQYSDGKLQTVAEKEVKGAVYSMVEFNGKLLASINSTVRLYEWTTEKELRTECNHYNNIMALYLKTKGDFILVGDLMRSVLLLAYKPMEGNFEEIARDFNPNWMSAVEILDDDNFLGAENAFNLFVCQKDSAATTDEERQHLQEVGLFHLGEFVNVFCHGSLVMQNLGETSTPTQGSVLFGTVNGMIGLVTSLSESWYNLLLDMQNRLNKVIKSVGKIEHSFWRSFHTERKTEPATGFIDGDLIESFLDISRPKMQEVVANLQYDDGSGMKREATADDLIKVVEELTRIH

Row | SMILES | DC50 (GSPT1; [2]) | IC50 [1, 3] | IC50 [1, 4] | DC50 (GSPT1; [5])
1 | O=C1CCC(N2Cc3ccc(CCC(=O)N4CCCC4)cc3C2=O)C(=O)N1 (centres unmarked) [Compound 15] | > 300 nM | 1100 to 1700 nM |  | 
2 | O=C1CCC(N2Cc3ccc(CCC(=O)NC4CCCCC4)cc3C2=O)C(=O)N1 (centres unmarked) [Compound 4] | > 300 nM | 500 to 1100 nM | < 1100 nM | 
3 | O=C1CCC(N2Cc3ccc(CCC(=O)NC4CCCC4)cc3C2=O)C(=O)N1 (centres unmarked) [Compound 17] | > 300 nM | 500 to 1100 nM | < 1100 nM | 
4 | CC1(c2ccc(NC(=O)CCc3ccc4c(c3)C(=O)N(C3CCC(=O)NC3=O)C4)cc2)COC1 (centres unmarked) [Compound 55] | > 300 nM | 1100 to 1700 nM |  | 
5 | O=C(CCc1ccc2c(c1)C(=O)N(C1CCC(=O)NC1=O)C2)NCC1CC1 (centres unmarked) [Compound 9] | > 300 nM | 500 to 1100 nM | < 1100 nM | 
6 | O=C1CCC(N2Cc3ccc(CCC(=O)Nc4ccc(C5CC5)cc4)cc3C2=O)C(=O)N1 (centres unmarked) [Compound 38] | > 300 nM | ≤ 500 nM | < 1100 nM | 
7 | O=C1CCC(N2Cc3ccc(CCC(=O)NC4CCN(c5ccccn5)CC4)cc3C2=O)C(=O)N1 (centres unmarked) [Compound 12] | > 300 nM | 500 to 1100 nM | < 1100 nM | 
8 | Cc1ncc(NC(=O)CCc2ccc3c(c2)C(=O)N(C2CCC(=O)NC2=O)C3)cc1OC(F)(F)F (centres unmarked) [Compound 64] | 30 to 300 nM | 1100 to 1700 nM |  | 
9 | COc1cc(NC(=O)CCc2ccc3c(c2)C(=O)N(C2CCC(=O)NC2=O)C3)ccc1C (centres unmarked) [Compound 33] | 30 to 300 nM | 500 to 1100 nM | < 1100 nM | 
10 | O=C1CCC(N2Cc3ccc(CCC(=O)Nc4cc(F)cc(Cl)c4)cc3C2=O)C(=O)N1 (centres unmarked) [Compound 18] | > 300 nM | > 1700 nM |  | 
11 | O=C1CCC(N2Cc3ccc(CCC(=O)N4CCN(c5ccccc5)CC4)cc3C2=O)C(=O)N1 (centres unmarked) [Compound 27] | > 300 nM | > 1700 nM |  | 
12 | O=C1CCC(N2Cc3ccc(CCC(=O)Nc4cc(OC(F)(F)F)ccn4)cc3C2=O)C(=O)N1 (centres unmarked) [Compound 59] | > 300 nM | 500 to 1100 nM | < 1100 nM | 
13 | Cc1c(Cl)cc(NC(=O)CCc2ccc3c(c2)C(=O)N(C2CCC(=O)NC2=O)C3)cc1OC1CCNC1 (centres unmarked) [Compound 40, N-(3-chloro-4-methyl-5-(pyrrolidin-3-yloxy)phenyl)-3-(2-(2,6-dioxopiperidin-3-yl)-3-oxoisoindolin-5-yl)propanamide] | > 300 nM | ≤ 500 nM | < 1100 nM | 
14 | CCc1ncc(NC(=O)CCc2ccc3c(c2)C(=O)N(C2CCC(=O)NC2=O)C3)cc1C (centres unmarked) [Compound 47] | 30 to 300 nM | 500 to 1100 nM | < 1100 nM | 
15 | O=C1CCC(N2Cc3ccc(CCC(=O)N4CCC(Oc5ccccc5)C4)cc3C2=O)C(=O)N1 (centres unmarked) [Compound 21] | > 300 nM | > 1700 nM |  | 
16 | COc1cc(C)c(Cl)cc1NC(=O)CCc1ccc2c(c1)C(=O)N(C1CCC(=O)NC1=O)C2 (centres unmarked) [Compound 10] | > 300 nM | 500 to 1100 nM | < 1100 nM | 
17 | CCc1cc(NC(=O)CCc2ccc3c(c2)C(=O)N(C2CCC(=O)NC2=O)C3)cc(C)n1 (centres unmarked) [Compound 57] | > 300 nM | ≤ 500 nM | < 1100 nM | 

Other lines, results leading:

Row | DC50 (GSPT1; [2]) | IC50 [1, 3] | IC50 [1, 4] | DC50 (GSPT1; [5]) | SMILES
18 | 30 to 300 nM | 1100 to 1700 nM |  |  | Cc1c(Cl)cc(NC(=O)CCc2ccc3c(c2)C(=O)N(C2CCC(=O)NC2=O)C3)cc1CN1CC2CCC(C1)O2 (centres unmarked) [Compound 24]
19 | 30 to 300 nM | 500 to 1100 nM | < 1100 nM |  | CCc1cc(NC(=O)CCc2ccc3c(c2)C(=O)N(C2CCC(=O)NC2=O)C3)cnc1C (centres unmarked) [Compound 46]
20 | 30 to 300 nM | 1100 to 1700 nM |  |  | O=C1CCC(N2Cc3ccc(CCC(=O)Nc4cccc(OC(F)(F)F)c4)cc3C2=O)C(=O)N1 (centres unmarked) [Compound 5]
21 | 30 to 300 nM | 500 to 1100 nM | < 1100 nM |  | CCOc1cc(NC(=O)CCc2ccc3c(c2)C(=O)N(C2CCC(=O)NC2=O)C3)ccc1C (centres unmarked) [Compound 32]
22 | ≤ 30 nM | 500 to 1100 nM | < 1100 nM | 22 nM | CC(C)(C)c1ccc(NC(=O)CCc2ccc3c(c2)C(=O)N(C2CCC(=O)NC2=O)C3)cc1 (centres unmarked) [Compound 45]
23 | 30 to 300 nM | 500 to 1100 nM | < 1100 nM |  | CN1CCC(Oc2cc(Cl)cc(NC(=O)CCc3ccc4c(c3)C(=O)N(C3CCC(=O)NC3=O)C4)c2)C1 (centres unmarked) [Compound 31]
24 | 30 to 300 nM | > 1700 nM |  |  | O=C1CCC(N2Cc3ccc(CCC(=O)Nc4ccc(F)c(OC(F)(F)F)c4)cc3C2=O)C(=O)N1 (centres unmarked) [Compound 60]
25 | 30 to 300 nM | ≤ 500 nM | < 1100 nM |  | Cc1c(Cl)cc(NC(=O)CCc2ccc3c(c2)C(=O)N(C2CCC(=O)NC2=O)C3)cc1OCCN1CCOCC1 (centres unmarked) [Compound 39]
26 | 30 to 300 nM | 1100 to 1700 nM |  |  | CC1(c2ccc(NC(=O)CCc3ccc4c(c3)C(=O)N(C3CCC(=O)NC3=O)C4)cc2)CC1 (centres unmarked) [Compound 58]
27 | ≤ 30 nM | 500 to 1100 nM | < 1100 nM | 12 nM | Cc1c(CN2CCOCC2)cc(NC(=O)CCc2ccc3c(c2)C(=O)N(C2CCC(=O)NC2=O)C3)cc1OC(F)F (centres unmarked) [Compound 35]
28 | 30 to 300 nM | > 1700 nM |  |  | CCc1cc(NC(=O)CCc2ccc3c(c2)C(=O)N(C2CCC(=O)NC2=O)C3)sn1 (centres unmarked) [Compound 65]
29 | ≤ 30 nM | 500 to 1100 nM | < 1100 nM | 25 nM | Cc1cc(C)cc(NC(=O)CCc2ccc3c(c2)C(=O)N(C2CCC(=O)NC2=O)C3)c1 (centres unmarked) [Compound 7]
30 | 30 to 300 nM | 500 to 1100 nM | < 1100 nM |  | Cc1c(Cl)cc(NC(=O)CCc2ccc3c(c2)C(=O)N(C2CCC(=O)NC2=O)C3)cc1CN1CC2CC1CO2 (centres unmarked) [Compound 22]
31 | ≤ 30 nM | 500 to 1100 nM | < 1100 nM | 27 nM | O=C1CCC(N2Cc3ccc(CCC(=O)Nc4ccc(-c5ccccn5)cc4)cc3C2=O)C(=O)N1 (centres unmarked) [Compound 44]
32 | ≤ 30 nM | > 1700 nM |  | 17 nM | O=C1CCC(N2Cc3ccc(CCC(=O)Nc4cc(Cl)cc(OC(F)(F)F)c4)cc3C2=O)C(=O)N1 (centres unmarked) [Compound 11]
33 | ≤ 30 nM | 1100 to 1700 nM |  | 30 nM | Cc1c(F)cc(NC(=O)CCc2ccc3c(c2)C(=O)N(C2CCC(=O)NC2=O)C3)cc1CN1CCOCC1 (centres unmarked) [Compound 42]
